We go through 3 compounds from patent US11834698B2, “Process for determining enzyme activity in a cell by activity-based reporter gene technology (ABRGT)” (INDIAN INSTITUTE OF SCIENCE EDUCATION AND RESEARCH, priority 2018, dated 2023).

This assay concerns the target T1, caspase-3 GFPspark (Homo sapiens, UniProt P42574).
T1 sequence (P42574 29-175 limits assumed): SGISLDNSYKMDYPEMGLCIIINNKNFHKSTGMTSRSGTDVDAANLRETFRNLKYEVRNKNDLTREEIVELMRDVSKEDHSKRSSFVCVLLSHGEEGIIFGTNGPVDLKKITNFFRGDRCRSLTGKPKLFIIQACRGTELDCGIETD
T1 sequence (P42574 176-277 limits assumed): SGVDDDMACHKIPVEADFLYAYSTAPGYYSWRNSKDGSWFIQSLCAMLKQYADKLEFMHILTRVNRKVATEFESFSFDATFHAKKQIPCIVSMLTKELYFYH
The experiment in a line: AbRGT FRET imaging / acceptor photobleaching, caspase-3 GFPspark in MCF-7 cells. The class given is cell-based. More on the design: host or cells: MCF-7, HeLa, HEK-293. The conditions noted are these: for effect of inhibitor on FRET signal: STS 4 h. The protocol:
FIG. 2 depicts (a) a schematic representation of AbRGT in determining the specific activation of caspase-3 GFPspark tagged enzyme by FRET effect utilizing Rh-VAD-FMK (probe 1). (b) The fluorescence signal was collected in GFP, FRET and Rhodamine (Rh) channels. MCF-7 cells transfected with caspase-3 GFPspark treated with (i) 1 μM STS for 4 h or (ii) 1 μg/ml TRAIL for 5 h and then labelled with probe 1. (iii) Un-transfected MCF-7 cells were treated with 1 μM STS for 4 h and then labelled with the probe 1. MCF-7 cells transfected with enhanced green fluorescent protein (EGFP) plasmid treated (iv) with 1 μM STS or (v) without STS for 4 h and then labelled with probe 1, scale bar, […]. (c) FRET validation between GFPspark and rhodamine fluorophore using the acceptor photobleaching method. Images for GFP and rhodamine fluorescence signals were collected in GFP and FRET channels pre- and post-bleaching of rhodamine signals. (d) Quantification of change in GFP fluorescence intensity after rhodamine photo-bleaching in both unbleached control region and rhodamine bleached region, region of interest (ROI), area under the white square. Error bar represents the s.e.m for n=15 cells (*P<0.00001). Scale bar, 10 μm. a.u., arbitrary units.
FIGS. 6A and 6B depict time dependent activation of caspase-3 GFPspark in MCF-7 cells upon STS (1 μM) induction. MCF-7 cells transfected with 2 μg of caspase-3 GFPspark plasmid and treated with 1 μM of STS for 2, 6, and 8 h. Cells were then labelled with the probe 1 for an additional 2 h. […] FRET validation between GFPspark and rhodamine fluorophore using the acceptor photobleaching method for the MCF-7 cells with STS induction for 2, 6 and 8 h. I=intensity (a.u.), arbitrary units. The calculated FRET efficiency for 2, 6 and 8 h are 38, 43, and 36% respectively.
FIGS. 7A and 7B depict applying AbRGT for specific detection of active caspase-3 GFPspark using the Rh-DEVD-FMK (probe 2). Caspase-3 GFPspark (2 μg) overexpressing MCF-7 cells were treated with 1 μM of STS for 4 h and labelled with the probe 2 (1 μM). […] The rise in GFPspark intensity after rhodamine photobleaching in the background is insignificant as compared to the ROI, i.e., 68 a.u., with a calculated FRET efficiency of 35%.
FIG. 12 depicts confocal images of MCF-7 cells in GFP, FRET and Rh channel. Caspase-3 GFPspark transfected MCF-7 cells were treated with STS for 4 h and labelled (a) with or (b) without probe 1. Cells were pre-treated with (c) Z-VAD-FMK (50 μM) and (d) Q-VD-OPh (50 μM) pan-caspase inhibitors 3 h before the probe labelling.
Plasmids and transient transfection: GFPspark tagged plasmids; caspase-3 GFPspark tag (Cat: HG10050-ACG), caspase-7 GFPspark tag (HG10049-ACG), caspase-8 GFPspark (HG10078-ACG), caspase-9 GFPspark (HG11151-ACG) and cathepsin B GFPspark (HG10483-ACG) were procured from Sino Biological. For transfection, cells were seeded in a 6-well plate at a density of 0.4 million cells/well. At 60-70% confluency, cells were transiently transfected for 24 h at 37° C. with 1 μg of the GFPspark tagged plasmid DNA construct mixed with 5 μL of Lipofectamine 2000 (Invitrogen) according to the manufacturer's instructions. 24 h post-transfection, cells were visualized under the GFP filter for GFPspark expression under fluorescence microscope at 10× magnification.
Labelling of active caspases in apoptotic cells with FABP: After 24 h of transfection, cells were treated with STS (1 μM) drug or TRAIL (1 μg/ml) for apoptotic induction and incubated for 2, 4, 6 and 8 h at 37° C. in a humidified atmosphere of 5% CO2/95% air. Cells were gently scraped off from the surface at the end of apoptotic induction and centrifuged at 3000 rpm for 5 min. The cell pellet was resuspended in 300 μL of fresh DMEM containing 1 μM of probe for probe 2 and incubated for additional 2 h at 37° C. in a humidified atmosphere of 5% CO2. Cells were again centrifuged at 3000 rpm for 5 mins, and the supernatant was decanted. […]

The mark [1] stands for this setting: MCF-7, inhibitor 50 μM pre-treatment before probe 1 labelling.

Peptide text beside a SMILES is read from it. * marks the point of attachment. Cbz = O=C(OCc1ccccc1)*; CH2F = FC*

As for `CC(C)[C@H](NC(=O)c1ccc2ccccc2n1)C(=O)N[C@@H](CC(=O)O)C(=O)COc1c(F)cccc1F` [Q-VD-OPh], under setting [1], the “signal in Rh channel in presence of inhibitor” value was “distinct punctate labelling was detected” and the “effect of inhibitor on FRET signal” value is “abolished”.

As to `COC(=O)C[C@H](NC(=O)[C@H](C)NC(=O)[C@@H](NC(=O)OCc1ccccc1)C(C)C)C(=O)CF` [Z-VAD-FMK] (Cbz-Val-Ala-Asp(OMe)-CH2F), under setting [1], the “effect of inhibitor on FRET signal” value is “completely abolished”.

With “Rhodamine-VAD-fluoromethyl ketone [probe 1]”, the “calculated FRET efficiency” value runs as follows: (MCF-7, STS 1 μM 2 h) 38%; (MCF-7, STS 1 μM 4 h, probe 1 μM 2 h, acceptor photobleaching) 35±1%; (MCF-7, STS 1 μM 6 h) 43%; (MCF-7, STS 1 μM 8 h) 36%. In addition, the “rise in GFP intensity after rhodamine photobleaching in ROI” value (MCF-7, STS 1 μM 4 h, probe 1 μM) is recorded as 58±3 a.u.
